# Assay results reported in US20240059671A1, “TYROSINE KINASE 2 (TYK2) DEGRADATION COMPOUNDS AND METHODS OF USE” (CULLGEN (SHANGHAI), INC., priority 2020, published 2024).
# Target: TYK2 (Homo sapiens, UniProt P29597)
# Assay: TYK2 protein degradation in MOLT-4 cells by immunoblotting
# Format: cell-based
# Parameters: endogenous in cells; host or cells: MOLT-4
# Settings: MOLT-4 cells, 24 hours
# Description: MOLT-4 cells were treated with compounds at 0.5 and 5 μM concentrations for 24 hours.
# MOLT-4 cells were treated with CPD-038, CPD-039, and CPD-040 at 0.04, 0.2, 1, and 5 μM concentrations for 24 hours.
# MOLT-4 or NOMO-1 cells were cultured at 37° C. with 5% CO2 in RPMI 1640 Medium supplemented with 10% fetal bovine serum. Cells were authenticated using the short tandem repeat (STR) assays. Mycoplasma test results were negative.
# Cultured cells were washed with cold PBS once and lysed in cold RIPA buffer supplemented with protease inhibitors and phosphatase inhibitors (Beyotime Biotechnology). The solutions were then incubated at 4° C. for 30 minutes with gentle agitation to fully lyse cells. Cell lysates were centrifuged at 13,000 rpm for 10 minutes at 4° C. and pellets were discarded. Total protein concentrations in the lysates were determined by BCA assays (Beyotime Biotechnology). Cell lysates were mixed with Laemmli loading buffer to 1× and heated at 99° C. for 5 min. Proteins were resolved on SDS-PAGE and visualized by chemiluminescence. Images were taken by a ChemiDoc MP Imaging system (Bio-Rad). Protein bands were quantitated using the accompanied software provided by Bio-Rad.
# The percentage of TYK2 protein degradation of each compound at 0.5 and 5 μM determined in MOLT-4 cells as described in Methods.
# TYK2, sequence (P29597 whole entry): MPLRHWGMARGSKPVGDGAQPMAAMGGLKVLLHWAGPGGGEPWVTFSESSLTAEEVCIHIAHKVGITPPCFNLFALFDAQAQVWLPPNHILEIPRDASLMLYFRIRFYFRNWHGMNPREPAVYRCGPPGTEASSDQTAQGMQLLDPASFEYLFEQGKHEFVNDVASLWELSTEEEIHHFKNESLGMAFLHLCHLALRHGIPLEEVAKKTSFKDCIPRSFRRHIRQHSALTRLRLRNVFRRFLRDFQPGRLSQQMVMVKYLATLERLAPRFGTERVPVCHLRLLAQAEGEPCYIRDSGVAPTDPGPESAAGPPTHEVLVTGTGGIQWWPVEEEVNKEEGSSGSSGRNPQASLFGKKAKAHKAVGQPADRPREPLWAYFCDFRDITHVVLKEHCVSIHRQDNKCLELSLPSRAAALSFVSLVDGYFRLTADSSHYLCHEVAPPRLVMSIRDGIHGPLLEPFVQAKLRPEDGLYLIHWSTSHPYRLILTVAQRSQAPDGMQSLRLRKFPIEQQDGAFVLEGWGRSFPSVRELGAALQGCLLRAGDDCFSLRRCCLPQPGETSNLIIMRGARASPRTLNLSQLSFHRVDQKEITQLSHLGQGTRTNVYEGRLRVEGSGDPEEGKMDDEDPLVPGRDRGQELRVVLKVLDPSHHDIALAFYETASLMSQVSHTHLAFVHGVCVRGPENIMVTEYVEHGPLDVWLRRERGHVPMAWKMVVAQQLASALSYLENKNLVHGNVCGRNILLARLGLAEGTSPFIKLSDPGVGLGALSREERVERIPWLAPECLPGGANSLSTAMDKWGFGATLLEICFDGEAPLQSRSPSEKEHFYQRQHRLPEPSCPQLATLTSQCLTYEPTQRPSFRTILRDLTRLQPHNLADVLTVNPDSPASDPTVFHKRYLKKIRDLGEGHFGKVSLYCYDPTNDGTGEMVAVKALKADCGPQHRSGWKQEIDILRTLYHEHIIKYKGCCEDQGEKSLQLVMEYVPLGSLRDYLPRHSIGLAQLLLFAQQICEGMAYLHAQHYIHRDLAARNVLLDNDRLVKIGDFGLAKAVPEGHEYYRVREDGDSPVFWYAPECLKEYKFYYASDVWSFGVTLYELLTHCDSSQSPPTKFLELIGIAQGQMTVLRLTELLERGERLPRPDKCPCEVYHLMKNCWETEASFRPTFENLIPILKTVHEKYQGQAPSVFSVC
TYK2 Degradation (0.5 μM) [%],TYK2 Degradation (5 μM) [%],"TYK2 Degradation (MOLT-4, 0.5 μM)",SMILES,"TYK2 Degradation (MOLT-4, 5 μM)"
≤20,≤20,,"CNC(=O)c1nnc(NC(=O)CNC(=O)CCOCCOCCOCCOCCOCCNc2cccc3c2C(=O)N(C2CCC(=O)NC2=O)C3=O)cc1Nc1cccc(-c2ncn(C)n2)c1OC (centres unmarked) [CPD-053, 6-(1-((2-(2,6-Dioxopiperidin-3-yl)-1,3-dioxoisoindolin-4-yl)amino)-18-oxo-3,6,9,12,15-pentaoxa-19-azahenicosan-21-amido)-4-((2-methoxy-3-(1-methyl-1H-1,2,4-triazol-3-yl)phenyl)amino)-N-methylpyridazine-3-carboxamide]",
≤20,≤20,,"CNC(=O)c1nnc(NC(=O)CNC(=O)CCC(=O)N[C@H](C(=O)N2C[C@H](O)C[C@H]2C(=O)NCc2ccc(-c3scnc3C)cc2)C(C)(C)C)cc1Nc1cccc(-c2ncn(C)n2)c1OC [CPD-034, N^1—((S)-1-((2S,4R)-4-Hydroxy-2-((4-(4-methylthiazol-5-yl)benzyl)carbamoyl)pyrrolidin-1-yl)-3,3-dimethyl-1-oxobutan-2-yl)-N^4-(2-((5-((2-methoxy-3-(1-methyl-1H-1,2,4-triazol-3-yl)phenyl)amino)-6-(methylcarbamoyl)pyridazin-3-yl)amino)-2-oxoethyl)succinamide]",
≤20,,,"CNC(=O)c1nnc(NC(=O)C2CC2)cc1Nc1cccc(-c2ncn(CCNC(=O)CCCCCNc3cccc4c3C(=O)N(C3CCC(=O)NC3=O)C4=O)n2)c1OC (centres unmarked) [CPD-005, 6-(Cyclopropanecarboxamido)-4-((3-(1-(2-(6-((2-(2,6-dioxopiperidin-3-yl)-1,3-dioxoisoindolin-4-yl)amino)hexanamido)ethyl)-1H-1,2,4-triazol-3-yl)-2-methoxyphenyl)amino)-N-methylpyridazine-3-carboxamide]",
,,C (C: ≤20% TYK2 degradation),"CNC(=O)c1nnc(NC(=O)CNC(=O)CCCCOc2cc(-c3scnc3C)ccc2CNC(=O)[C@@H]2C[C@@H](O)CN2C(=O)[C@@H](NC(=O)C2(F)CC2)C(C)(C)C)cc1Nc1cccc(-c2ncn(C)n2)c1OC [CPD-104, 6-(2-(5-(2-(((2S,4R)-1-((S)-2-(1-Fluorocyclopropane-1-carboxamido)-3,3-dimethylbutanoyl)-4-hydroxypyrrolidine-2-carboxamido)methyl)-5-(4-methylthiazol-5-yl)phenoxy)pentanamido)acetamido)-4-((2-methoxy-3-(1-methyl-1H-1,2,4-triazol-3-yl)phenyl)amino)-N-methylpyridazine-3-carboxamide]",C (C: ≤20% TYK2 degradation)
≤20,30,,"CNC(=O)c1nnc(NC(=O)C2CC2)cc1Nc1cccc(-c2ncn(CCNC(=O)CCCCCCCNc3ccc4c(c3)C(=O)N(C3CCC(=O)NC3=O)C4=O)n2)c1OC (centres unmarked) [CPD-024, 6-(Cyclopropanecarboxamido)-4-((3-(1-(2-(8-((2-(2,6-dioxopiperidin-3-yl)-1,3-dioxoisoindolin-5-yl)amino)octanamido)ethyl)-1H-1,2,4-triazol-3-yl)-2-methoxyphenyl)amino)-N-methylpyridazine-3-carboxamide]",
≤20,,,"CNC(=O)c1nnc(NC(=O)C2CC2)cc1Nc1cccc(-c2ncn(CCNC(=O)CCOCCOCCOCCOCCNc3cccc4c3C(=O)N(C3CCC(=O)NC3=O)C4=O)n2)c1OC (centres unmarked) [CPD-011, 6-(Cyclopropanecarboxamido)-4-((3-(1-(1-((2-(2,6-dioxopiperidin-3-yl)-1,3-dioxoisoindolin-4-yl)amino)-15-oxo-3,6,9,12-tetraoxa-16-azaoctadecan-18-yl)-1H-1,2,4-triazol-3-yl)-2-methoxyphenyl)amino)-N-methylpyridazine-3-carboxamide]",
≤20,≤20,,"CNC(=O)c1nnc(NC(=O)CNC(=O)CCCCCNc2ccc3c(c2)C(=O)N(C2CCC(=O)NC2=O)C3=O)cc1Nc1cccc(-c2ncn(C)n2)c1OC (centres unmarked) [CPD-058, 6-(2-(6-((2-(2,6-Dioxopiperidin-3-yl)-1,3-dioxoisoindolin-5-yl)amino)hexanamido)acetamido)-4-((2-methoxy-3-(1-methyl-1H-1,2,4-triazol-3-yl)phenyl)amino)-N-methylpyridazine-3-carboxamide]",
60,≤20,,"CNC(=O)c1nnc(NC(=O)CNC(=O)CCCCCCNc2cccc3c2C(=O)N(C2CCC(=O)NC2=O)C3=O)cc1Nc1cccc(-c2ncn(C)n2)c1OC (centres unmarked) [CPD-047, 6-(2-(7-((2-(2,6-dioxopiperidin-3-yl)-1,3-dioxoisoindolin-4-yl)amino)heptanamido)acetamido)-4-((2-methoxy-3-(1-methyl-H-1,2,4-triazol-3-yl)phenyl)amino)-N-methylpyridazine-3-carboxamide]",
≤20,,,"CNC(=O)c1nnc(NC(=O)C2CC2)cc1Nc1cccc(-c2ncn(CCNC(=O)CCOCCNc3cccc4c3C(=O)N(C3CCC(=O)NC3=O)C4=O)n2)c1OC (centres unmarked) [CPD-008, 6-(Cyclopropanecarboxamido)-4-((3-(1-(2-(3-(2-((2-(2,6-dioxopiperidin-3-yl)-1,3-dioxoisoindolin-4-yl)amino)ethoxy)propanamido)ethyl)-1H-1,2,4-triazol-3-yl)-2-methoxyphenyl)amino)-N-methylpyridazine-3-carboxamide]",
≤20,,,"CNC(=O)c1nnc(NC(=O)C2CC2)cc1Nc1cccc(-c2ncn(CCNC(=O)CCOCCOCCOCCNc3cccc4c3C(=O)N(C3CCC(=O)NC3=O)C4=O)n2)c1OC (centres unmarked) [CPD-010, 6-(Cyclopropanecarboxamido)-4-((3-(1-(1-((2-(2,6-dioxopiperidin-3-yl)-1,3-dioxoisoindolin-4-yl)amino)-12-oxo-3,6,9-trioxa-13-azapentadecan-15-yl)-1H-1,2,4-triazol-3-yl)-2-methoxyphenyl)amino)-N-methylpyridazine-3-carboxamide]",
≤20,,,"CNC(=O)c1nnc(NC(=O)C2CC2)cc1Nc1cccc(-c2ncn(CCNC(=O)CCCCCCNc3ccc4c(c3)C(=O)N(C3CCC(=O)NC3=O)C4=O)n2)c1OC (centres unmarked) [CPD-017, 6-(Cyclopropanecarboxamido)-4-((3-(1-(2-(7-((2-(2,6-dioxopiperidin-3-yl)-1,3-dioxoisoindolin-5-yl)amino)heptanamido)ethyl)-1H-1,2,4-triazol-3-yl)-2-methoxyphenyl)amino)-N-methylpyridazine-3-carboxamide]",
≤20,,,"CNC(=O)c1nnc(NC(=O)C2CC2)cc1Nc1cccc(-c2ncn(CCNC(=O)CCOCCNc3ccc4c(c3)C(=O)N(C3CCC(=O)NC3=O)C4=O)n2)c1OC (centres unmarked) [CPD-018, 6-(Cyclopropanecarboxamido)-4-((3-(1-(2-(3-(2-((2-(2,6-dioxopiperidin-3-yl)-1,3-dioxoisoindolin-5-yl)amino)ethoxy)propanamido)ethyl)-1H-1,2,4-triazol-3-yl)-2-methoxyphenyl)amino)-N-methylpyridazine-3-carboxamide]",
,,C (C: ≤20% TYK2 degradation),"CNC(=O)c1nnc(NC(=O)CNC(=O)CCNC(=O)C[C@H](NC(=O)[C@@H]2C[C@@H](O)CN2C(=O)[C@@H](NC(=O)C2(F)CC2)C(C)(C)C)c2ccc(-c3scnc3C)cc2)cc1Nc1cccc(-c2ncn(C)n2)c1OC [CPD-087, 6-(2-(3-((S)-3-((2S,4R)-1-((S)-2-(1-Fluorocyclopropane-1-carboxamido)-3,3-dimethylbutanoyl)-4-hydroxypyrrolidine-2-carboxamido)-3-(4-(4-methylthiazol-5-yl)phenyl)propanamido)propanamido)acetamido)-4-((2-methoxy-3-(1-methyl-1H-1,2,4-triazol-3-yl)phenyl)amino)-N-methylpyridazine-3-carboxamide]",
≤20,≤20,,"CNC(=O)c1nnc(NC(=O)CNC(=O)CCOCCOCCNc2ccc3c(c2)C(=O)N(C2CCC(=O)NC2=O)C3=O)cc1Nc1cccc(-c2ncn(C)n2)c1OC (centres unmarked) [CPD-062, 6-(2-(3-(2-(2-((2-(2,6-Dioxopiperidin-3-yl)-1,3-dioxoisoindolin-5-yl)amino)ethoxy)ethoxy)propanamido)acetamido)-4-((2-methoxy-3-(1-methyl-1H-1,2,4-triazol-3-yl)phenyl)amino)-N-methylpyridazine-3-carboxamide]",

SMILES,TYK2 Degradation (0.5 μM) [%],TYK2 Degradation (5 μM) [%],"TYK2 Degradation (MOLT-4, 0.5 μM)","TYK2 Degradation (MOLT-4, 5 μM)"
"CNC(=O)c1nnc(NC(=O)CNC(=O)CCCCCCCCCNC(=O)C[C@H](NC(=O)[C@@H]2C[C@@H](O)CN2C(=O)[C@@H](NC(=O)C2(F)CC2)C(C)(C)C)c2ccc(-c3scnc3C)cc2)cc1Nc1cccc(-c2ncn(C)n2)c1OC [CPD-094, 6-(2-(10-((S)-3-((2S,4R)-1-((S)-2-(1-Fluorocyclopropane-1-carboxamido)-3,3-dimethylbutanoyl)-4-hydroxypyrrolidine-2-carboxamido)-3-(4-(4-methylthiazol-5-yl)phenyl)propanamido)decanamido)acetamido)-4-((2-methoxy-3-(1-methyl-1H-1,2,4-triazol-3-yl)phenyl)amino)-N-methylpyridazine-3-carboxamide]",,,"B (B: <60% TYK2 degradation, and >20% TYK2 degradation)","B (B: <60% TYK2 degradation, and >20% TYK2 degradation)"
